We go through 26 compounds from the Deep4Chem optical property database.

The series can be described thus: solvent given as SMILES.

In the case of `CC(C)(C)c1ccc2c(c1)c1cc(C(C)(C)C)ccc1n2-c1cc(C(=O)c2ccncc2)cc(-n2c3ccc(C(C)(C)C)cc3c3cc(C(C)(C)C)ccc32)c1`, the absorption maximum (in Cc1ccccc1) was 396 nm.
The same measure, in the same setting: with `COCCC1=Cc2nc1ccc1[nH]c(cc1CCOC)c1nc(ccc3[nH]c2cc3CCO)C(CCOC)=C1` the figure was 637 nm.
Regarding `C(=C\c1ncccn1)/c1ccc(-c2ccc(N(c3ccccc3)c3ccccc3)cc2)cc1`, where the note is “in ClCCl”, the absorption maximum is 373 nm.
Take `COC(=O)c1ccc(/C=C2\N=C(c3ccc(OC)c(OC)c3)NC2=O)cc1`: where the note is “in C1COCCO1”, the absorption maximum was 403 nm.
`COc1ccc2c(c1)c(C#N)cc1c(OC)c(OC)c3cc(C#N)c4cc(OC)ccc4c3c12`: for the setting “in ClC(Cl)Cl”, the absorption maximum was 471 nm.
Where the note is “in CO”, `CCC1(CC)c2cc(-c3ccc(C(C)(C)C)cc3)ccc2-c2ccc(-c3ccc4c(c3)C(CC)(CC)c3cc(-c5ccc6c(c5)C(CC)(CC)c5cc(-c7ccc(C(C)(C)C)cc7)ccc5-6)ccc3-4)cc21` displayed an absorption maximum of 360.54 nm.
Under “in ClCCl”, `Cc1cc2c3ccccc3oc2c2[nH]c3ccccc3c12` registered an absorption maximum of 314 nm.
Take `O=C1c2ccc(N(c3ccccc3)c3ccccc3)cc2C(=O)c2ccc(N(c3ccccc3)c3ccccc3)cc21`: the absorption maximum (in Cc1ccccc1) worked out at 449 nm.
For the setting “in ClCCl”, `C(#Cc1cc(C#Cc2ccccc2)c(C#Cc2ccccc2)c(C#Cc2ccccc2)c1C#Cc1ccccc1)c1ccccc1` displayed an absorption maximum of 364 nm.
`Cc1cn(C)c(=O)nc1-n1cncn1` had an absorption maximum (in O) of 323 nm.
For `CCN(CC)c1ccc2cc(C#N)/c(=N\C(=O)C(C)C)oc2c1`, the absorption maximum is reported as 422 nm (in CCO) and 428 nm (in ClCCl).
Where the note is “in C1CCOC1”, `CCCCOc1cc2ccccc2c2c1oc1cc3ccccc3cc12` registered an absorption maximum of 351 nm.
As for `C#Cc1ccc2cc3c(C)cc(=O)oc3cc2c1`, the absorption maximum (in CCO) is on record as 334 nm.
As to `CC1CCC(=CS/C=C/c2ccc(/C=C/SC=C3CCC(C)CC3)cc2)CC1` (configuration not stated), for the setting “in ClCCl”, the absorption maximum came to 350 nm.
`CCCCCCC(CCCCCC)N1C(=O)c2cccc3c(-c4ccc(-c5ccc(OC)cc5)cc4)ccc(c23)C1=O` returned an absorption maximum (in CCCCCC) of 354 nm; an absorption maximum (in CCCCCCCCCCCCCC) of 357.6 nm; an absorption maximum (in CCCCCCCCCCCO) of 369.4 nm; an absorption maximum (in CCCCO) of 366 nm; an absorption maximum (in CN(C)C=O) of 369 nm; an absorption maximum (in Cc1ccccc1) of 364.8 nm. Besides, the absorption maximum (in ClC(Cl)Cl) amounted to 364.4 nm.
For the compound `CCn1c2ccccc2c2cc(/C=C/c3cccc(/C=C/c4ccc5c(c4)c4ccccc4n5CC)[n+]3CCCS(=O)(=O)[O-])ccc21`, the absorption maximum runs as follows: (in C1CCOC1) 460 nm; (in CC#N) 454 nm; (in CC(C)=O) 458 nm; (in Cc1ccccc1) 453 nm.
On to `COc1cc(/C=C/c2nc3ccccc3s2)c(OC)cc1/C=C/c1ccncc1`, for which the absorption maximum runs as follows: (in C1CCOC1) 415 nm; (in CC#N) 410 nm; (in CN(C)C=O) 416 nm; (in Cc1ccccc1) 416 nm.
`Fc1ccc(-c2c3ccccc3nc3cc4ccccc4cc23)cc1`: for the setting “in ClCCl”, the absorption maximum stood at 400 nm.
For `CC(C)(C)c1ccc2c(c1)c1cc(C(C)(C)C)ccc1n2-c1ccc(C#Cc2cccc(C#Cc3ccc(-n4c5ccc(C(C)(C)C)cc5c5cc(C(C)(C)C)ccc54)cc3)c2)cc1`, the absorption maximum is given as 340 nm (in CC#N); 340 nm (in CCCCC); 338 nm (in CO); 345 nm (in Cc1ccccc1); 344 nm (in ClC(Cl)Cl); 345 nm (in ClCCl).
For the compound `CC(=O)[O-]`, the absorption maximum (in O) was determined as 210 nm.
Take `NC(=O)Cc1cccc2ccccc12`: the absorption maximum is on record as 283 nm (in C1COCCO1); 282 nm (in CC#N); 282 nm (in CCO); 283 nm (in ClC(Cl)Cl); 280 nm (in O); 283 nm (in OCCO). The compound also returned an absorption maximum (in [2H]O[2H]) of 280 nm.
Regarding `Cc1ccc(-c2cc3ccccc3oc2=O)cc1`, the absorption maximum runs as follows: (in C1CCOC1) 328 nm; (in CCCCCC) 328 nm; (in CCO) 328 nm; (in CS(C)=O) 330 nm.
As to `CCN(CC)c1ccc(/C=C/C2=[O+][B-](F)(F)Oc3c2c(=O)oc2cc(N(CC)CC)ccc32)cc1`, the absorption maximum (in C1CCCCC1) is given as 542 nm; the absorption maximum (in C1COCCO1) stood at 569 nm; the absorption maximum (in CC#N) amounted to 589 nm; the absorption maximum (in CC(C)=O) worked out at 584 nm; the absorption maximum (in CCO) is on record as 581 nm; the absorption maximum (in CCOC(C)=O) was found to be 571 nm. Moreover, the absorption maximum (in CO) amounted to 582 nm; the absorption maximum (in CS(C)=O) is on record as 607 nm; the absorption maximum (in Cc1ccccc1) is given as 567 nm; the absorption maximum (in ClC(Cl)Cl) stood at 581 nm; the absorption maximum (in ClCCl) amounted to 587 nm; the absorption maximum (in OCC(O)CO) was 610 nm. This compound displayed an absorption maximum (in OCCO) of 605 nm.
For the compound `CN(CCO)c1ccc(/C=C/C2=C(C#N)C(C(C#N)C#N)OC2(C)C)cc1` (configuration not stated), the absorption maximum was 586 nm (in CC#N); 574 nm (in CC(C)=O); 579 nm (in CCO); 565 nm (in CCOC(C)=O); 588 nm (in CN(C)C=O); 575 nm (in CO). Moreover, the absorption maximum came to 595 nm (in CS(C)=O), 562 nm (in Cc1ccccc1), 575 nm (in ClCCl) and 587 nm (in O).
Take `COC(=O)C(Cc1ccc2oc(-c3ccc(N(c4ccccc4)c4ccccc4)cc3)nc2c1)NC(=O)OC(C)(C)C` (configuration not stated): the absorption maximum is, setting by setting: (in C1CCCCC1) 361.7 nm; (in C1CCOC1) 362.85 nm; (in C1COCCO1) 363.1 nm; (in CC1CCCCC1) 361.35 nm; (in CC1COC(=O)O1) 361.45 nm; (in CC#N) 360.5 nm. For the same compound, the absorption maximum reads like this: (in CC(C)=O) 360.45 nm; (in CC(C)O) 365.45 nm; (in CC(O)CO) 368.35 nm; (in CCCCCC) 359.8 nm; (in CCCCCCCC) 361.55 nm; (in CCCCCO) 367.75 nm. The absorption maximum runs as follows: (in CCCCO) 367.1 nm; (in CCO) 366.3 nm; (in CCOC(C)=O) 360.5 nm; (in CN(C)C=O) 363 nm; (in CO) 365.05 nm; (in COCCOC) 362.55 nm. Moreover, the absorption maximum (in CS(C)=O) was determined as 364 nm; the absorption maximum (in ClC(Cl)Cl) is on record as 369.25 nm; the absorption maximum (in ClCCl) was 366.18 nm; the absorption maximum (in N#Cc1ccccc1) was determined as 368.3 nm; the absorption maximum (in NC=O) came to 367.45 nm; the absorption maximum (in O) was 367 nm. Further, for the setting “in OCC(F)(F)F”, the absorption maximum stood at 366.1 nm.
For the compound `CCCSc1ccc2n1[B-](F)(F)[N+]1=C(SC#N)C=CC1=C2c1ccccc1`, the absorption maximum was determined as 538 nm (in CC#N); 555 nm (in CCCCCC); 549 nm (in CCOC(C)=O); 544 nm (in CO); 552 nm (in ClCCl).
